Series [1] deals with T1, apical sodium dependent bile acid transporter (hASBT) (Homo sapiens, UniProt Q12908).
T1 construct: gene SLC10A2
T1 sequence (Q12908 1-348): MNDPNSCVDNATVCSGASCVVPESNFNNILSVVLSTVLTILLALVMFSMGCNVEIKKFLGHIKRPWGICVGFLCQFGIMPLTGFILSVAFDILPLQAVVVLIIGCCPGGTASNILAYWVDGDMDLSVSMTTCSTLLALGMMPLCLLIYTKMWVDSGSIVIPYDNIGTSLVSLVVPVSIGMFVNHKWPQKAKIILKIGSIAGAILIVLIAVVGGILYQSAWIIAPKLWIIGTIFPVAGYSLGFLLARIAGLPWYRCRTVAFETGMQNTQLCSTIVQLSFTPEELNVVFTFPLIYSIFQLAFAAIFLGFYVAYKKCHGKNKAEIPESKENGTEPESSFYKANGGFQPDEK
The experiment in a line: inhibition of [3H]-taurocholate uptake in stably transfected hASBT-MDCK cells. The series is classed as cell-based.

In series [2] the target is T2, Na+/taurocholate cotransporting polypeptide (hNTCP) (Homo sapiens, UniProt Q14973).
T2 construct: gene SLC10A1
T2 sequence (Q14973 1-349): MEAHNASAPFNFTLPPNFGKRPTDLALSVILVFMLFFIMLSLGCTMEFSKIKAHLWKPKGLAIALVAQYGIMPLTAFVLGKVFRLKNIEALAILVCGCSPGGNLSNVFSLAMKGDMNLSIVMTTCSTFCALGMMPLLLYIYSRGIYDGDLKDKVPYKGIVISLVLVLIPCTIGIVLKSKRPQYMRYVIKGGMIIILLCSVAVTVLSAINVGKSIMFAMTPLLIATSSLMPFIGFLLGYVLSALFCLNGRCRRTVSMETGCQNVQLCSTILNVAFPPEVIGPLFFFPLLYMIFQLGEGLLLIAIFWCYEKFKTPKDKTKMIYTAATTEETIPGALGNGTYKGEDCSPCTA
The experiment in a line: inhibition of [3H]-taurocholate uptake in transiently transfected hNTCP-HEK293T cells. It counts as cell-based.

Substrate in series [3]: C[C@H](CCC(=O)NCCS(=O)(=O)O)[C@H]1CC[C@H]2[C@@H]3[C@H](O)C[C@@H]4C[C@H](O)CC[C@]4(C)[C@H]3C[C@H](O)[C@]12C
The series can be described thus: cells, lysate or membranes. The note with it: Na+.

A word on the Ki: it is a dissociation constant, usually derived from enzyme kinetics or from competition with a known ligand. Higher therefore signals a looser hold on the target. With `C[C@H](CCC(=O)NCC(=O)O)[C@H]1CC[C@H]2[C@@H]3[C@H](O)C[C@@H]4C[C@H](O)CC[C@]4(C)[C@H]3C[C@H](O)[C@]12C` [GCA, glycocholic acid], the Ki in series [1] came to 8.28 ± 0.57 µM; in series [2], 2.47 ± 0.43 µM.

B1: Na+/taurocholate cotransporting polypeptide (hNTCP) (Homo sapiens) (protein)
chain: T2 sequence (Q14973 1-349)
As usually defined, the Km is the concentration of substrate that gives half-maximal velocity. As to B1, the Km in series [3] turned out to be 2.14 ± 1.55 µM.

For the origin of these results see paper PMC9908032, “Novel nitroxide-bile acid conjugates inform substrate requirements for human bile acid transporters” (European journal of pharmaceutical sciences : official …, 2022).
